Experimental data published in patent publication US9237761B2, “Methods and diets for lowering glucose and/or IGF-1 levels” (priority 2013, dated 2016).

What was measured:
4T1 breast cancer = 4T1 breast cancer subcutaneous tumor progression with cisplatin; format: in vivo, BalB/C mice; conditions: three cycles, 12, 8, 8 mg/kg i.v. days 15, 33, 44
Method: Murine 4T1 breast cancer and GL26 glioma cells were maintained in DMEM (Invitrogen) supplemented with 10% fetal bovine serum (FBS) at 37° C. under 5% CO2. Cells in log phase growth were washed and suspended in PBS at 2×10^6 cells/mL and injected subcutaneously (s.c., 2×10^5 cells/mouse in 100 μL PBS) in the lower back region of the mouse. Tumor size was measured using a caliper. To mimic multi-cycle treatments in humans, mice were treated intravenously (i.v., lateral tail vein) with Cisplatin (Teva Parenteral Medicines Inc.) three times on days 15, 33 and 44 after tumor inoculation at 12, 8 and 8 mg/kg body weight, respectively. Mice were monitored daily and animals showing signs of severe stress, deteriorating health status or excess tumor load (2000 mm^3) were designated as moribund and euthanized.
The efficacy of STS in augmenting the treatment of various cancers is twofold: it protects against chemotherapy-induced toxicity to normal cells/tissues and sensitizes malignant cells to chemotherapeutic agents. […] To test whether a short-term intermittent 50% CR (ICR) diet could result in similar beneficial effects as the established fasting protocols, murine 4T1 breast cancer cells were implanted subcutaneously into female BalB/C mice and monitored the tumor progression. […]

[1] = 24 mg/kg i.v., mice fed ad lib AIN93G

Row | Compound | tumor volume vs untreated mice (4T1 breast cancer) | survival by day 25 post injection [1]
1 | N.N.[Cl][Pt][Cl] [cisplatin, Cisplatin] | approximately half the size | 
2 | COc1cccc2c1C(=O)c1c(O)c3c(c(O)c1C2=O)C[C@@](O)(C(=O)CO)C[C@@H]3O[C@H]1C[C@H](N)[C@H](O)[C@H](C)O1 [DXR, Doxorubicin] |  | 16%
